How the values were obtained:
[1] = tested on: LS123 cells; test: Cell proliferation assay (CellTiter-Glo), K-Ras G12S cells; format: cell-based; conditions: Comparative Compound A lacking the warhead vs Compound B
Method: A549 (ATCC CRL-185) and LS123 (ATCC CRL-255) cell lines comprise a G12S mutation and can be used to assess Ras cellular signaling in vitro, e.g., in response to the compounds herein. A549 culture medium is prepared with RPMI-1640 and 10% heat-inactivated FBS. LS123 culture medium is prepared with RPMI-1640 and 10% heat-inactivated FBS. A CellTiter-Glo (CTG) luminescent based assay (Promega) is used to assess growth of the cells, as a measurement of the ability of the compounds herein to inhibit Ras signaling in the cells. The cells (e.g., 800 per well) are seeded in their respective culture medium in standard tissue culture-treated 384-well format plates (Falcon #08-772-116) or ultra-low attachment surface 384-well format plates (S-Bio #MS-9384WZ). The day after plating, cells are treated with a dilution series (e.g., a 10 point 3-fold dilution series) of the compounds herein (e.g., approximately 40 μl final volume per well). Cell viability can be monitored (e.g., approximately 6 days later) according to the manufacturer's recommended instructions, where the CellTiter-Glo reagent is added (e.g., approximately 10 μl), vigorously mixed, covered, and placed on a plate shaker (e.g., approximately for 20 min) to ensure sufficient cell lysis prior to assessment of luminescent signal. The IC50 values are determined using the four parameter fit. The resulting IC50 value is a measurement of the ability of the compounds herein to reduce cell growth of Ras-driven cells (e.g., tumor cell lines) in vitro and/or in vivo.

[2] = Metabolic (microsomal) stability assay; conditions: pooled liver microsomes, pH 7.4
Method: (§1) The metabolic stability of a test compound is assayed at 37° C. using pooled liver microsomes (mouse or human liver microsomes). An aliquot of 10 μL of 50 μM test compound is mixed with 490 μL of 0.611 mg/mL liver microsomes, then 50 μL of the mixtures are dispensed to the 96 well tubes and warmed at 37° C. for 10 minutes. The reactions are initiated by adding 50 μL of the pre-warmed NADPH regeneration system solution (add 1.2 μL solution, 240 μl solution B, mix with 10.56 ml KPBS) and then incubated at 37° C. The final incubation solution contains 100 mM potassium phosphate (pH 7.4), 1.3 mM NADP+, 3.3 mM glucose 6-phosphate, 0.4 Unit/mL of glucose 6-phosphate dehydrogenase, 3.3 mM magnesium chloride, 0.3 mg/mL liver microsomes and 0.5 μM test article. After 0, 15, 30 and 60 minutes in a shaking incubator, the reactions are terminated by adding 100 μL of acetonitrile containing 200 nM buspirone as an internal standard. All incubations are conducted in duplicate. […] Samples are then centrifuged at 3500 rpm for 10 minutes (4° C.) using Sorvall Legend XRT Centrifuge (Thermo Scientific, GE). Supernatants (40 μL) are transferred into clean 96-deep well plates. Each well is added with 160 μL of ultrapure water (Milli-Q, Millipore Corporation) with 0.1% (v/v) formic acid (Fisher Chemical), mixed thoroughly and subjected to LC/MS/MS analysis in MRM positive ionization mode.
(§2) All the samples are measured using a mass spectrometer (QTrap 5500 quadrupole/ion trap) coupled with a Shimadzu HPLC system. The HPLC system consisted of a Shimadzu series degasser, binary quaternary gradient pumps, column heater coupled to an autosampler, and a Phenomenex Gemini-NX, C18, 3.0 μm or Phenomenex Lunar, C8, 5.0 μM HPLC column (Phenomenex, Torrance, CA), and eluted with a mobile phase gradient consisting of Solution A (0.1% formic acid water) and Solution B (0.1% formic acid acetonitrile). The column temperature is maintained at 40° C. All the analytes are detected with positive-mode electrospray ionization (ES+).
(§3) The half-life for the metabolic degradation of the test compound is calculated by plotting the time-course disappearance of the test compound during the incubation with liver microsomes. Each plot is fitted to a first-order equation for the elimination of the test compound (% remaining compound) versus time using non-linear regression (Equation 1).
(§4) where Ct is the mean relative substrate concentration at time t and C0 is the initial concentration (0.5 μM) at time 0. Note that the area ratio of the substrate peak to an internal standard peak is proportional to the analyte concentration and is used for regression analysis to derive a value of k.

[3] = target: T1, KRAS G12D 1-169 (His-tagged, GDP-loaded) (Homo sapiens, UniProt P01116, G12D); test: Covalent modification of KRAS protein by intact-protein LC-MS; format: binding; conditions: comparable or same conditions as K-Ras G12S
T1 construct: His -tagged GDP-loaded G12D 1-169; made in house; host or cells: E. coli, e.g. BL21 (DE3)
T1 sequence (P01116 1-169 isoform P01116-2 G12D): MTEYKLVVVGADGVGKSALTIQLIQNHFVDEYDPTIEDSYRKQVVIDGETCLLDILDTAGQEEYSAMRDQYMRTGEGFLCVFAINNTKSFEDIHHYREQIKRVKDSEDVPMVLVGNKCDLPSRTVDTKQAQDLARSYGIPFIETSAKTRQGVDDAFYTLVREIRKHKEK
How it was run: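 Percent modification is derived from deconvoluted intact-protein LC-ESI-MS peak intensities of adducted versus unmodified KRAS. GDP-loaded His-tagged KRAS 1-169 (~2 μM, HEPES buffer at physiological conditions) was exposed to compound for 24 hrs at room temperature, then quenched with formic acid before C4 reversed-phase separation.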

[4] = microsomes
Method: as §1, §2, §3, §4

| SMILES | Compound IC50 Ratio IC50 (Cpd A):IC50 (Cpd B) [1] | half-life at 0.5 μM [2] | covalent labeling of K-Ras G12D [3] | T½ microsomal stability [4] |
| --- | --- | --- | --- | --- |
| C#Cc1c(F)ccc2cc(O)cc(-c3ccc4c(N5CCCC6(CN(C(=O)n7cncn7)C6)C5)nc(OC[C@@]56CCCN5C[C@H](F)C6)nc4c3F)c12 [Compound A210, (6-(7-(8-ethynyl-7-fluoro-3-hydroxynaphthalen-1-yl)-8-fluoro-2-(((2R,7aS)-2-fluoro-tetrahydro-1H-pyrrolizin-7a(5H)-yl)methoxy)quinazolin-4-yl)-2,6-diazaspiro[3.5]nonan-2-yl)(1H-1,2,4-triazol-1-yl)-methanone] | >4 (LS123 cells) | – | – | – |
| N#Cc1c(N)sc2c(F)ccc(-c3c(Cl)cc4c(N5CC6(CCCN(C(=O)n7cncn7)C6)C5)nc(OC[C@@]56CCCN5C[C@H](F)C6)nc4c3F)c12 [Compound A266, 4-(4-(6-(1H-1,2,4-triazole-1-carbonyl)-2,6-diazaspiro[3.5]-nonan-2-yl)-6-chloro-8-fluoro-2-(((2R,7aS)-2-fluorotetra-hydro-1H-pyrrolizin-7a(5H)-yl)methoxy)quinazolin-7-yl)-2-amino-7-fluorobenzo[b]thio-phene-3-carbonitrile] | >4 (LS123 cells) | > 10 min | essentially no detectable labeling | – |
| N#Cc1cnn(C(=O)N2C3CCC2CN(c2nc(OC[C@@]45CCCN4C[C@H](F)C5)nc4c(F)c(-c5ccc(F)c6sc(N)c(C#N)c56)c(Cl)cc24)C3)c1 [Compound A278, 1-(3-(7-(2-amino-3-cyano-7-fluorobenzo[b]thiophen-4-yl)-6-chloro-8-fluoro-2-(((2R,7aS)-2-fluorotetrahydro-1H-pyrrolizin-7a(5H)-yl)methoxy)quinazolin-4-yl)-3,8-diazabicyclo[3.2.1]-octane-8-carbonyl)-1H-pyr-azole-4-carbonitrile] | – | – | – | greater than 10 mins |
| N#Cc1c(N)sc2c(F)ccc(-c3c(Cl)cc4c(N5CCCCC6(CN(C(=O)n7cncn7)C6)C5)nc(OC[C@@]56CCCN5C[C@H](F)C6)nc4c3F)c12 [Compound A295, 4-(4-(2-(1H-1,2,4-triazole-1-carbonyl)-2,6-diazaspiro[3.6]-decan-6-yl)-6-chloro-8-fluoro-2-(((2R,7aS)-2-fluorotetra-hydro-1H-pyrrolizin-7a(5H)-yl)methoxy)quinazolin-7-yl)-2-amino-7-fluorobenzo[b]thio-phene-3-carbonitrile] | >4 (LS123 cells) | – | essentially no detectable labeling | – |
